Test results: publication PMC12775434, “Ultra-large virtual screening unveils potent agonists of the neuromodulatory orphan receptor GPR139” (Nature Communications, 2025)
Several values for one entry are separate records, joined by “and”; a condition that tells them apart may be missing. Identical values can stand only once.

Tests used:
Type in all cases: cell-based
GPR139 (G12 activation) = biological target: T1, GPR139 (G12 activation) (Homo sapiens, UniProt Q6DWJ6); experiment: BRET G protein activation (dissociation) assay, G12, HEK293A; details: for G protein activation, G12: individual replicates, listed as JNJ (S)
T1 construct: expressed in transfected cells; host or cells: HEK293A (transient, Lipofectamine 2000)
T1 sequence (Q6DWJ6 1-353): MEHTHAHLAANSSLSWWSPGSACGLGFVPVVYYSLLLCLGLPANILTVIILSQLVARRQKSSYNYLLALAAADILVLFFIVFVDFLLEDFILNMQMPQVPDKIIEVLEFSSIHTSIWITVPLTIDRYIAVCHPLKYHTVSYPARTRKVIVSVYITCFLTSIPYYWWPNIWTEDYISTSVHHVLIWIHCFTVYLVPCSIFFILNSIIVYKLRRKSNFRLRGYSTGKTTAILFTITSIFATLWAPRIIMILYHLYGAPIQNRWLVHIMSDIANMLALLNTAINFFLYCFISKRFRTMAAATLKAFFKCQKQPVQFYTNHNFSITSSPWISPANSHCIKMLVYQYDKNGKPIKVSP
Experimental: (§1) Primary screening and pharmacological characterization of compounds were performed using a CHO-K1 cell line that stably expresses human GPR139 (GPR139-CHOk1). The GPR139-CHOk1 cell line was kindly provided by H. Lundbeck A/S, Denmark[24]. GPR139-CHOk1 cells were grown in Ham’s F-12 Kaighn’s Modification Medium (ThermoFisher #21127030) supplemented with 10% dialyzed fetal bovine serum (US origin, ThermoFisher #26400044), 100 units/mL Penicillin-Streptomycin (ThermoFisher #15140122), and 1 mg/mL Geneticin (ThermoFisher #11811031). […] M1R-CHOk1 cells were purchased from The Missouri S&T cDNA Resource Center (#CEM100TN00). M1R-CHOk1 cells were grown in Ham’s F12 Medium (ThermoFisher #21765029) supplemented with 10% fetal bovine serum (Brazilian origin, ThermoFisher #10270106), 100 units/mL Penicillin-Streptomycin, and 0.25 mg/mL Geneticin. HEK293A cells transiently transfected with GPR139 were used for additional pharmacological assessment of signaling pathways activated by GPR139. HEK239A cells were generously provided by Dr. Asuka Inoue, Tohoku University, Japan. HEK293A cells were grown in Dulbecco’s Modified Eagle Medium (ThermoFisher #31966047) supplemented with 10% dialyzed fetal bovine serum and 100 units/mL Penicillin-Streptomycin. Cell lines were maintained at 37 °C in humidified incubator equilibrated with 5% CO2.
(§2) The G protein dissociation assay developed by the lab of Kirill A. Martemyanov was used to measure the coupling of multiple G proteins by GPR139[57]. The assay was performed as described previously with minor modifications. HEK293A cells were reverse transfected 20–24 h prior to assay. 50,000 cells were plated in each well of white opaque tissue culture treated 96-well plates (PerkinElmer #6005680) previously coated with poly-D-lysine. Transfection solutions were prepared as described, and 10 µL transfection solution was mixed with 100 µL cells in each well. The cells in each well were transfected with 18.9 ng GPR139, 6.3 ng Venus 1-155 Gγ2, 6.3 ng Venus 159-239 Gβ1, 6.3 ng masGRK3ct-NanoLuc and 12.6 ng Gαi2, 12.6 ng Gαi3, 12.6 ng GαoA, 12.6 ng Gαq or 25.2 ng Gα12 using 375 nL Lipofectamine 2000 Transfection Reagent. Transfections with Gαq and Gα12 contained 6.3 ng DNA of the active subunit S1 of pertussis toxin (PTX-S1). Each transfection was normalized to 150 ng total DNA with pcDNA3.1. The BRET biosensors were a kind gift from the Martemyanov lab. On the day of the experiment the cells were washed with HEPES buffer. Test compounds were diluted in HEPES buffer from DMSO stocks (final DMSO concentration of maximally 0.3%). NanoLuc Luciferase substrate NanoGlo—furimazine (Promega #N1120) was diluted 1000-fold (final) in HEPES buffer. NanoGlo and test compounds were added, and measurements were performed after 10 s for Gi3, 15 s for Gi2 and GoA, 20 s for Gq, and 90 s for G12—the timepoint where maximal signal occurred with each G protein, ensuring proper determination of the potency for the G protein coupling. Simultaneous dual emission was measured at 535 nm and 475 nm on LUMIstar Omega Microplate Reader (BMG Labtech) at room temperature. The BRET ratio of 535 nm/475 nm (Venus/NanoLuc), reflecting the dissociation of the G protein heterotrimer, was used to determine the G protein activation. The basal BRET ratio obtained with buffer condition was subtracted from the absolute BRET ratio at a given test compound concentration, and the responses were normalized to the one obtained with 10 µM JNJ-63533054 for the activation of Gi2.
(§3) Pharmacological data and statistical analyses were performed in GraphPad Prism v9–10 (Graphpad Software Inc., San Diego, CA), which are also specifically described in the figure and table legends. […]

GPR139 (Gq activation) = biological target: T2, GPR139 (Gq activation) (Homo sapiens, UniProt Q6DWJ6); experiment: BRET G protein activation (dissociation) assay, Gq, HEK293A; details: for G protein activation, Gq: individual replicates, listed as JNJ (S)
T2 construct: expressed in transfected cells; host or cells: HEK293A (transient, Lipofectamine 2000)
T2 sequence (Q6DWJ6 1-353): T1 sequence (Q6DWJ6 1-353)
Experimental: as §1, §2, §3

GPR139 (Gi2 activation) = biological target: T3, GPR139 (Gi2 activation) (Homo sapiens, UniProt Q6DWJ6); experiment: BRET G protein activation (dissociation) assay, Gi2, HEK293A; details: for G protein activation, Gi2: individual replicates, listed as JNJ (S)
T3 construct: expressed in transfected cells; host or cells: HEK293A (transient, Lipofectamine 2000)
T3 sequence (Q6DWJ6 1-353): T1 sequence (Q6DWJ6 1-353)
Experimental: as §1, §2, §3

[1] = HEK293-A, normalized to JNJ-63533054 (JNJ(S))

Compound: CC(NC(=O)CNC(=O)c1cccc(Cl)c1)c1ccccc1 (stereo not drawn) [JNJ-63533054, reference compound]
- Emax (GPR139 (G12 activation); [1]): 57 ± 1%
- EC50 (GPR139 (G12 activation); Supplementary Table 6, read-out: pEC50 G12 (converted)): 25.1 nM
- G protein activation, G12 (GPR139 (G12 activation); log [compound] M -4.5): 60 % of JNJ-63533054 at Gi2 (2×) and 57 % of JNJ-63533054 at Gi2
- G protein activation, G12 (GPR139 (G12 activation); log [compound] M -5.0): 55 % of JNJ-63533054 at Gi2 and 54 % of JNJ-63533054 at Gi2 and 57 % of JNJ-63533054 at Gi2
- G protein activation, G12 (GPR139 (G12 activation); log [compound] M -5.5): 53 % of JNJ-63533054 at Gi2 and 55 % of JNJ-63533054 at Gi2 and 54 % of JNJ-63533054 at Gi2
- G protein activation, G12 (GPR139 (G12 activation); log [compound] M -6.0): 50 % of JNJ-63533054 at Gi2 and 51 % of JNJ-63533054 at Gi2 and 53 % of JNJ-63533054 at Gi2
- G protein activation, G12 (GPR139 (G12 activation); log [compound] M -6.5): 52 % of JNJ-63533054 at Gi2 and 46 % of JNJ-63533054 at Gi2 and 48 % of JNJ-63533054 at Gi2
- G protein activation, G12 (GPR139 (G12 activation); log [compound] M -7.0): 47 % of JNJ-63533054 at Gi2 and 42 % of JNJ-63533054 at Gi2 and 38 % of JNJ-63533054 at Gi2
- G protein activation, G12 (GPR139 (G12 activation); log [compound] M -7.5): 32 % of JNJ-63533054 at Gi2 and 33 % of JNJ-63533054 at Gi2 and 26 % of JNJ-63533054 at Gi2
- G protein activation, G12 (GPR139 (G12 activation); log [compound] M -8.0): 22 % of JNJ-63533054 at Gi2 and 21 % of JNJ-63533054 at Gi2 and 16 % of JNJ-63533054 at Gi2
- Emax (GPR139 (Gq activation); [1]): 42 ± 3%
- EC50 (GPR139 (Gq activation); Supplementary Table 6): 158 nM
- G protein activation, Gq (GPR139 (Gq activation); log [compound] M -4.5): 40 % of JNJ-63533054 at Gi2 and 47 % of JNJ-63533054 at Gi2 and 36 % of JNJ-63533054 at Gi2
- G protein activation, Gq (GPR139 (Gq activation); log [compound] M -5.0): 40 % of JNJ-63533054 at Gi2 and 47 % of JNJ-63533054 at Gi2 and 39 % of JNJ-63533054 at Gi2
- G protein activation, Gq (GPR139 (Gq activation); log [compound] M -5.5): 42 % of JNJ-63533054 at Gi2 and 44 % of JNJ-63533054 at Gi2 and 32 % of JNJ-63533054 at Gi2
- G protein activation, Gq (GPR139 (Gq activation); log [compound] M -6.0): 39 % of JNJ-63533054 at Gi2 and 42 % of JNJ-63533054 at Gi2 and 31 % of JNJ-63533054 at Gi2
- G protein activation, Gq (GPR139 (Gq activation); log [compound] M -6.5): 29 % of JNJ-63533054 at Gi2 and 32 % of JNJ-63533054 at Gi2 and 23 % of JNJ-63533054 at Gi2
- G protein activation, Gq (GPR139 (Gq activation); log [compound] M -7.0): 17 % of JNJ-63533054 at Gi2 (2×) and 9 % of JNJ-63533054 at Gi2
- G protein activation, Gq (GPR139 (Gq activation); log [compound] M -7.5): 5.47 % of JNJ-63533054 at Gi2 and 7 % of JNJ-63533054 at Gi2 and 1.27 % of JNJ-63533054 at Gi2
- G protein activation, Gq (GPR139 (Gq activation); log [compound] M -8.0): 1.82 % of JNJ-63533054 at Gi2 and 0.745 % of JNJ-63533054 at Gi2 and -0.2 % of JNJ-63533054 at Gi2
- Emax (GPR139 (Gi2 activation); [1]): 109 ± 1%
- EC50 (GPR139 (Gi2 activation); Supplementary Table 6, read-out: pEC50 Gi2 (converted)): 50.1 nM
- G protein activation, Gi2 (GPR139 (Gi2 activation); log [compound] M -4.5): 109 % of JNJ-63533054 at Gi2 and 111 % of JNJ-63533054 at Gi2 and 108 % of JNJ-63533054 at Gi2
- G protein activation, Gi2 (GPR139 (Gi2 activation); log [compound] M -5.0): 106 % of JNJ-63533054 at Gi2 and 107 % of JNJ-63533054 at Gi2 and 108 % of JNJ-63533054 at Gi2
- G protein activation, Gi2 (GPR139 (Gi2 activation); log [compound] M -5.5): 107 % of JNJ-63533054 at Gi2 and 103 % of JNJ-63533054 at Gi2 and 104 % of JNJ-63533054 at Gi2
- G protein activation, Gi2 (GPR139 (Gi2 activation); log [compound] M -6.0): 102 % of JNJ-63533054 at Gi2 and 99 % of JNJ-63533054 at Gi2 and 98 % of JNJ-63533054 at Gi2
- G protein activation, Gi2 (GPR139 (Gi2 activation); log [compound] M -6.5): 92 % of JNJ-63533054 at Gi2 and 85 % of JNJ-63533054 at Gi2 (2×)
- G protein activation, Gi2 (GPR139 (Gi2 activation); log [compound] M -7.0): 75 % of JNJ-63533054 at Gi2 and 67 % of JNJ-63533054 at Gi2 and 70 % of JNJ-63533054 at Gi2
- G protein activation, Gi2 (GPR139 (Gi2 activation); log [compound] M -7.5): 49 % of JNJ-63533054 at Gi2 and 44 % of JNJ-63533054 at Gi2 (2×)
- G protein activation, Gi2 (GPR139 (Gi2 activation); log [compound] M -8.0): 21 % of JNJ-63533054 at Gi2 (2×) and 20 % of JNJ-63533054 at Gi2
